Measured values reported in patent publication US4427668A, “26-Hydroxycholesterol and derivatives and analogs thereof in regulation of cholesterol accumulation in body tissue” (New York University, priority 1982, dated 1984).

Assays:
HMG-CoA reductase [1] = details: 2.5 μM, 5 hours; Chang et al, J. Biol. Chem. 256:6304 (1981); cited from earlier work
HMG-CoA reductase [2] = experiment: HMG-CoA reductase activity in Chinese hamster ovary (CHO-K1) cell culture, as mevalonate formed; assay type: cell-based; details: CHO-K1 cells
Experimental: The effect of 26-hydroxycholesterol on HMG-CoA reductase activity was determined using the procedures of Chang et al, J. Biol. Chem. 256:6304 (1981). Chinese hamster ovary cells, CHO-Kl cells (also referred to as wild type) were obtained from the American Type Culture Collection and grown in Falcon flasks on Ham's F-12 media containing 10% fetal calf serum. Approximately 21/2 days after cells were removed from the stock flask cultures and seeded into petri dishes (60 mm), each containing 0.03×10^6 cells, they were rinsed with phosphate-buffered saline (PBS) and then grown in F-12 media containing 10% delipidated fetal calf serum for 48 hours with one change of media. Following this, either fresh media (still with delipidated calf serum) or fresh media containing 0.14% DMSO alone or 26-hydroxycholesterol was added and the cells incubated for varying periods of time. Our final concentration of DMSO was less than Chang (0.14% vs. 0.3%) and comparison of HMG-CoA reductase activity at 5 hours with media not containing DMSO gives the same or slightly higher (not significant) values. Under these conditions, over 50% inhibition has been obtained using the 0.25 μM concentration of 26-hydroxycholesterol and incubating for 5 hours. Not only is the mean highly significant but none of the individual control flasks overlap with the individual flasks containing 26-hydroxycholesterol. Using a concentration 10 X greater (2.5 μM) of 25-hydroxycholesterol, Chang reported 80% inhibition at 5 hours. Table 1 below sets forth average results of this experiment when carried out on a single day. […] HMG-CoA reductase activity was determined using the double-label technique of Pitot et al, J. Lipid Res. 12:512 (1971) and the thin-layer separation of Shapiro et al, Anal. Biochem. 31:383 (1969). […] The mevalonlactone is separated by thin-layer chromatography and the ^14 C/^3 H ratio determined from which the total amount of ^14 C can be calculated (corrected for ^3 H recovered) and expressed per mg of cytosolic protein by the Lowry method.

Structure (SMILES): C[C@H](CCCC(C)(C)O)[C@H]1CC[C@H]2[C@@H]3CC=C4C[C@@H](O)CC[C@]4(C)[C@H]3CC[C@]12C [25-hydroxycholesterol]
- inhibition of HMG-CoA reductase activity reported by Chang (HMG-CoA reductase [1]): 80%

Structure (SMILES): C[C@@H](CO)CCC[C@@H](C)[C@H]1CC[C@H]2[C@@H]3CC=C4C[C@@H](O)CC[C@]4(C)[C@H]3CC[C@]12C [26-hydroxycholesterol]
- % Inhibition of HMG-CoA reductase activity (HMG-CoA reductase [2]; 0.25 μM in 0.14% DMSO, 5 hours incubation, average of a single day): 65%
- HmG Co-A Reductase Activity (as mevalonate formed) (HMG-CoA reductase [2]; 0.25 μM in 0.14% DMSO, 5 hours incubation, DMSO control 0.048): 0.017 nMol/min/mg protein
- inhibition of HMG-CoA reductase activity (HMG-CoA reductase [2]; 0.25 μM, incubating for 5 hours): over 50%
